According to PMC12414742, “Amphipathic Octenyl‐Alanine Modified Peptides Mediate Effective siRNA Delivery” (Journal of Peptide Science, 2025):
Where no end group is shown, it is not given here.

Experiments:
[1] = tested on: bovine red blood cells; assay: Hemolysis (erythrocyte leakage) assay; format: cell-based; conditions: peptide alone 10 μM, 2% RBCs in HBG pH 5.5, 37°C, 1 h, absorbance 450 nm, n = 3 in triplicates
Experimental: The hemolysis experiments were carried out with bovine red blood cells (RBCs) (Håtunalab, Sweden). The cells were washed three times with HBG 7.4 and then diluted to a final concentration of 2% RBCs in HBG with noted pH. Ten microliters of peptides was added to 190 μL of cells in PCR plates and shaken at 37°C for 1 h. Then the cells were spun down at 500 × g, and 100 μL of supernatant was transferred to transparent 96‐well tissue culture plates. The absorbance of released hemoglobin was measured at 450 nm on a plate reader (Tecan Sunrise, Switzerland). As a positive control, 10% Triton X‐100 was used, while HBG served as a negative control. The percentage of hemolysis was calculated by the formula: hemolysis (%) = [(AS − AN)/(AP − AN)] × 100, where AS is the absorbance for the sample, AP for positive control, and AN for negative control. The results are shown as mean ± SEM of n = 3, done in triplicates.

[2] = tested on: siRNA; assay: Heparin displacement assay (complex stability); format: physicochemical; conditions: peptide/siRNA complexes at MR30 in MQ water, heparin at different concentrations, 15 min RT, SYBR Gold fluorescence, n = 3 in duplicates
Experimental: For the heparin displacement assay, peptide/siRNA complexes were formed in MQ water at MR30. Fifty microliters of complexes was then transferred to each well of a black 96‐well plate and mixed with 100 μL of 2X SYBR Gold dye (Thermo Fisher Scientific, USA), incubated, and then 50 μL of heparin (Sigma‐Aldrich, USA) solution with different concentrations was added. After 15 min at RT, the fluorescence was measured by Synergy Mx Microplate Reader (BioTek, USA) (ex = 495 nm, em = 537 nm) to determine the amount of accessible siRNA in the complexes. The data was normalized to the fluorescence of free siRNA (defined as 100%) and are expressed as a percentage of accessible siRNA. The results are shown as mean ± SEM of n = 3 in duplicates.

[3] = CD spectroscopy, secondary structure estimation; format: physicochemical; conditions: CD in MQ water, 100 μM peptide, 25°C, Reed's estimation; for proportion of alpha helical structure: 1-mm cuvette
Experimental: CD spectra were recorded on a Jasco J‐1500 CD spectrometer (Jasco, Japan) at 25°C at a concentration of 100 μM. Peptides were dissolved in MQ water and measured using 1‐mm pathlength quartz cuvette. The secondary structure estimates were calculated on the “Protein Secondary Structure Estimation” plugin in the Spectra Manager 2.13 software by using Reed's estimation.

[4] = DLS size, PDI and zeta potential of peptide/siRNA complexes; format: physicochemical
Experimental: The physicochemical properties (nanoparticle size, polydispersity index [PDI], and zeta potential) of peptide/siLuc complexes were measured by DLS (dynamic light scattering) using the Zetasizer Nano ZS apparatus (Malvern Instruments, UK).
The size and zeta potential of peptide/siLuc particles were measured at MR30 for hPep1, hPep2, and Ctrl peptide. For hPep3, measurements were also taken at different MRs (5–35). The complexes were formulated in 50 μL at a 2 μM final siRNA concentration for size measurement. The average diameter was obtained from three technical replicates, and one measurement was set to five runs (run duration 8 s) in disposable ZEN0040 cuvettes (Malvern Instruments, UK).
To measure the zeta potential, the complexes were diluted eight times in 10 mM HEPES 7.4 buffer. The zeta potential was obtained from three technical measurements in disposable DTS1070 cuvettes (Malvern Instruments, UK) with the number of runs set to automatic. The results are shown as an average of three separate experiments (mean ± SEM). All measurements were performed at 22°C.

[5] = cited from earlier work
Excerpt: Given that the differences in the peptide hydrophobicity and amphipathicity come from the number of carbons introduced by the alanine and alkenyl‐alanine side chains: three carbons for Ctrl peptide, 13 and 17 for hPep1 an ...

[6] = DLS, peptide/siLuc complexes at MR30, 2 μM siRNA, 22°C, mean of n = 3

| stability of the NPs against heparin (siRNA release) [2] | proportion of alpha helical structure [3] | random structure estimate [3] [%] | NP size (hydrodynamic diameter) [4, 6] | zeta potential of the complexes ([4]; all tested MRs (5-35)) | zeta potential ([4]; peptide/siLuc complexes at MR30, diluted eight times in 10 mM HEPES 7.4, 22°C, mean of n = 3) [mV] | PDI [4, 6] | Substance | hemolytic (lytic) activity [1] | order of hydrophobicity of the peptides [5] |
| --- | --- | --- | --- | --- | --- | --- | --- | --- | --- |
| Ctrl < hPep1 < hPep2 < hPep3 | zero | > 60 | ~ 2000 nm | stayed negative at all tested MRs | −23.7 | – | LAKLAKAAAKLLKAAAKAL-NH2 [Ctrl] | almost no activity | – |
| Ctrl < hPep1 < hPep2 < hPep3 | 15% | > 60 | – | – | – | 0.265 | H‐LAKLAKA{R8}AKLLKA{S5}AKAL‐NH2 [hPep1, C-terminally amidated amphipathic CPP with one octenyl- and one pentenyl-alanine] | – | hPep1 < hPep2 < hPep3 |
